Assay results as given in patent US20250169498A1, “SYNERGISTIC FUNGICIDAL INTERACTIONS OF A PICOLINAMIDE FUNGICIDE WITH OTHER FUNGICIDES AGAINST ASIAN SOYBEAN RUST” (CORTEVA AGRISCIENCE LLC, priority 2020, published 2025).

How the values were obtained:
[1] = tested on: Phakopsora pachyrhizi, PHAKPA; test: 1-day protectant (1 DP) PHAKPA test on soybean seedlings; type: in vivo; conditions: alone; for pest or weed control at 0.006 ppm: rate 0.006 ppm; for pest or weed control at 0.024 ppm: rate 0.024 ppm; for pest or weed control at 0.0015 ppm: rate 0.0015 ppm; for pest or weed control at 0.049 ppm: rate 0.049 ppm; for pest or weed control at 12.5 ppm: rate 12.5 ppm
Experimental: (§1) Fungicides were evaluated vs. PHAKPA either alone or in binary or ternary mixtures by combining each fungicide with Compound I. Technical grades of materials were dissolved in 1.5 ml of acetone, which were then mixed with 13.5 ml of water containing 0.011% Tween 20. The fungicide solutions were applied onto soybean seedlings using an automated booth sprayer to run-off. All sprayed plants were allowed to air dry prior to further handling. Soybean plants (variety Williams 82) were grown in soil-less Metro mix, with one plant per pot. Two weeks old seedlings were used for testing. Plants were inoculated either 3 days prior to or 1 day after fungicide treatments. Plants were incubated for 24 h in a dark dew room at 22° C. and 100% RH then transferred to a growth room at 23° C. for disease to develop. Once disease fully expressed on untreated plants, disease severity was assessed on the sprayed monofoliate leaves.
(§2) Synergy factors were calculated using Colby's method. The expected disease control (% DC exp) of a mixture consisting of two or three components can be predicted by the following formula: […]
(§3) where A, B, C are the percent disease control given by the individual fungicide component at the defined rate in the mixture. If the ratio (synergy factor) between the observed disease control of the mixture (% DCobs) and the expected disease control of the mixture (% DCexp) is greater than 1, synergistic interaction is present.
(§4) When disease fully developed on the control plants, infection levels were assessed on treated plants visually and scored on a scale of 0 to 100 percent. Percentage of disease control was then calculated using the ratio of disease on treated plants relative to control plants. […]

[2] = tested on: Phakopsora pachyrhizi, PHAKPA; test: 3-day curative (3 DC) PHAKPA test on soybean seedlings; type: in vivo; conditions: alone; for pest or weed control at 0.024 ppm: rate 0.024 ppm; for pest or weed control at 0.195 ppm: rate 0.195 ppm; for pest or weed control at 0.049 ppm: rate 0.049 ppm
Experimental: as §1, §2, §3, §4

[3] = Phakopsora pachyrhizi, read-out: % DC obs
[4] = Phakopsora pachyrhizi, rate 0.39 ppm, read-out: % DC obs
[5] = Phakopsora pachyrhizi, rate 0.195 ppm, read-out: % DC obs
[6] = Phakopsora pachyrhizi, rate 0.78 ppm, read-out: % DC obs
[7] = Phakopsora pachyrhizi, rate 3.125 ppm, read-out: % DC obs
[8] = Phakopsora pachyrhizi, rate 37.5 ppm, read-out: % DC obs
[9] = Phakopsora pachyrhizi, rate 75 ppm, read-out: % DC obs
[10] = Phakopsora pachyrhizi, rate 0.19 ppm, read-out: % DC obs
[11] = Phakopsora pachyrhizi, rate 200 ppm, read-out: % DC obs
[12] = Phakopsora pachyrhizi, rate 0.012 ppm, read-out: % DC obs

In the case of Fc1ccc([C@]2(Cn3cncn3)O[C@H]2c2ccccc2Cl)cc1 (racemic) [Epoxiconazole, rel-1-[[(2R,3S)-3-(2-chlorophenyl)-2-(4-fluorophenyl)oxiranyl]methyl]-1H-1,2,4-triazole], the pest or weed control at 0.006 ppm [1, 3] is reported as 3.7%, the pest or weed control at 0.024 ppm [1, 3] is reported as 48.1% and the pest or weed control at 0.024 ppm [2, 3] is reported as 0%.
Work on CO/C=C(/C(=O)OC)c1ccccc1Oc1cc(Oc2ccccc2C#N)ncn1 [Azoxystrobin, methyl (αE)-2-[[6-(2-cyanophenoxy)-4-pyrimidinyl]oxy]-α-(methoxymethylene)benzeneacetate] yielded a pest or weed control at 0.024 ppm [1, 3] of 22.2%, a pest or weed control at 0.098 ppm ([1]; Phakopsora pachyrhizi, rate 0.098 ppm, read-out: % DC obs) of 50.4% and a pest or weed control at 0.39 ppm [2, 4] of 31.7%.
With Cn1cc(C(=O)Nc2cccc3c2C2CCC3C2=C(Cl)Cl)c(C(F)F)n1 (stereo not shown) [Benzovindiflupyr, N-[11-(dichloromethylidene)-3-tricyclo[6.2.1.0]undeca-2(7),3,5-trienyl]-3-(difluoromethyl)-1-methylpyrazole-4-carboxamide] the “% DC obs” value ([1]; rate 0.195 ppm) was 3.7%, the “% DC obs” value ([1]; rate 0.78 ppm) was 11.1% and the “% DC obs” value ([1]; rate 3.125 ppm) was 80.0%. The “% DC obs” value ([2]; rate 0.78 ppm) was 11.7%.
Work on Cn1cc(C(=O)Nc2ccc(F)cc2-c2ccc(Cl)c(Cl)c2)c(C(F)F)n1 [Bixafen, N-(3′,4′-dichloro-5-fluoro[1,1′-biphenyl]-2-yl)-3-(difluoromethyl)-1-methyl-1H-pyrazole-4-carboxamide] yielded a pest or weed control at 0.195 ppm [1, 5] of 0%, a pest or weed control at 0.78 ppm [2, 6] of 0% and a pest or weed control at 3.125 ppm [2, 7] of 0%.
N#Cc1c(Cl)c(Cl)c(Cl)c(C#N)c1Cl [Chlorothalonil, tetrachlorisophthalonitrile] showed a pest or weed control at 37.5 ppm [1, 8] of 0%, a pest or weed control at 75 ppm [1, 9] of 87% and a pest or weed control at 37.5 ppm [2, 8] of 4.6%. It also gave a pest or weed control at 75 ppm [2, 9] of 13.7% and a pest or weed control at 150 ppm ([2]; Phakopsora pachyrhizi, rate 150 ppm, read-out: % DC obs) of 18.3%.
CCC(=O)Oc1c(OC)ccnc1C(=O)N[C@@H](C)C(=O)O[C@@H](C)[C@@H](C)c1ccccc1C [Compound I] showed a pest or weed control at 0.39 ppm [1, 4] of 79.2% and a pest or weed control at 1.56 ppm ([2]; Phakopsora pachyrhizi, rate 1.56 ppm, read-out: % DC obs) of 77.6%.
With [Cl-].[Cu+2].[Cu+2].[OH-].[OH-].[OH-] [Cu Oxychloride] the “% DC obs” value ([2]; rate 200 ppm) was 13.7%.
Work on CC(C1CC1)C(O)(Cn1cncn1)c1ccc(Cl)cc1 (stereo not shown) [Cyproconazole, 2-(4-chlorophenyl)-3-cyclopropyl-1-(1,2,4-triazol-1-yl)butan-2-ol] yielded a pest or weed control at 0.0015 ppm [1, 3] of 11.1%, a pest or weed control at 0.006 ppm [1, 3] of 3.7% and a pest or weed control at 0.024 ppm [1, 3] of 11.1%.
For CC1COC(Cn2cncn2)(c2ccc(Oc3ccc(Cl)cc3)cc2Cl)O1 (stereo not shown) [Difenoconazole, 1-[[2-[2-chloro-4-(4-chlorophenoxy)phenyl]-4-methyl-1,3-dioxolan-2-yl]methyl]-1,2,4-triazole], the pest or weed control at 0.19 ppm [1, 10] was 41.9% and the pest or weed control at 0.19 ppm [2, 10] was 18.3%.
CC(Cc1ccc(C(C)(C)C)cc1)CN1C[C@@H](C)O[C@@H](C)C1 (stereo partly drawn) [Fenpropimorph, (2S,6R)-4-[3-(4-tert-butylphenyl)-2-methylpropyl]-2,6-dimethylmorpholine] showed a pest or weed control at 100 ppm ([2]; Phakopsora pachyrhizi, rate 100 ppm, read-out: % DC obs) of 36.4% and a pest or weed control at 200 ppm [2, 11] of 61.9%.
Cn1cc(C(=O)Nc2ccccc2-c2cc(F)c(F)c(F)c2)c(C(F)F)n1 [Fluxapyroxad, 3-(difluoromethyl)-1-methyl-N-[2-(3,4,5-trifluorophenyl)phenyl]pyrazole-4-carboxamide] was tested, and the pest or weed control at 0.195 ppm [1, 5] was 3.7%, the pest or weed control at 0.78 ppm [1, 6] was 11.1% and the pest or weed control at 3.125 ppm [1, 7] was 80%. It also gave a pest or weed control at 0.195 ppm [2, 3] of 0% and a pest or weed control at 3.125 ppm [2, 7] of 17.6%.
CC(O)(Cn1cncn1)c1ccc(Oc2ccc(Cl)cc2)cc1C(F)(F)F (stereo not shown) [Mefentrifluconazole, 2-[4-(4-chlorophenoxy)-2-(trifluoromethyl)phenyl]-1-(1,2,4-triazol-1-yl)propan-2-ol] gave a pest or weed control at 0.049 ppm [1, 3] of 9.9%, a pest or weed control at 0.195 ppm [1, 5] of 87% and a pest or weed control at 0.049 ppm [2, 3] of 43.7%. For the same compound, the pest or weed control at 0.195 ppm [2, 3] was 69.1%.
CNC(=O)/C(=N/OC)c1ccccc1Oc1ccccc1 [Metominostrobin, (2E)-2-methoxyimino-N-methyl-2-(2-phenoxyphenyl)acetamide] was tested, and the pest or weed control at 0.78 ppm [1, 6] was 0%, the pest or weed control at 3.125 ppm [1, 7] was 11.1% and the pest or weed control at 12.5 ppm [1, 3] was 64.4%. The pest or weed control at 0.78 ppm [2, 6] was 33.3% and the pest or weed control at 3.125 ppm [2, 7] was 67.6%.
In the case of CO/C=C(/C(=O)OC)c1ccccc1COc1cccc(C(F)(F)F)n1 [Picoxystrobin, methyl (E)-3-methoxy-2-[2-[[6-(trifluoromethyl)pyridin-2-yl]oxymethyl]phenyl]prop-2-enoate], the pest or weed control at 0.195 ppm [1, 5] is reported as 0%, the pest or weed control at 0.78 ppm [1, 6] is reported as 80% and the “% DC obs” value ([1]; rate 0.195 ppm) is reported as 0%. The “% DC obs” value ([1]; rate 0.78 ppm) was 80%, the pest or weed control at 0.049 ppm [2, 3] was 18.5% and the pest or weed control at 0.195 ppm [2, 3] was 14.8%. The pest or weed control at 0.78 ppm [2, 6] was 53.3%.
CCCC1COC(Cn2cncn2)(c2ccc(Cl)cc2Cl)O1 (stereo not shown) [Propiconazole, 1-[[2-(2,4-dichlorophenyl)-4-propyl-1,3-dioxolan-2-yl]methyl]-1,2,4-triazole] showed a pest or weed control at 0.195 ppm [1, 5] of 19.9%, a pest or weed control at 0.78 ppm [1, 6] of 78% and a pest or weed control at 0.049 ppm [2, 3] of 9.2%. It also gave a pest or weed control at 0.195 ppm [2, 3] of 59.1%.
OC(Cc1ccccc1Cl)(Cn1[nH]cnc1=S)C1(Cl)CC1 (stereo not shown) [Prothioconazole, 2-[2-(1-chlorocyclopropyl)-3-(2-chlorophenyl)-2-hydroxypropyl]-1,2-dihydro-3H-1,2,4-triazole-3-thione] was tested, and the pest or weed control at 0.0015 ppm [1, 3] was 0% and the pest or weed control at 0.006 ppm [1, 3] was 7.4%.
For CON(C(=O)c1cn(C)nc1C(F)F)C(C)Cc1c(Cl)cc(Cl)cc1Cl (stereo not shown) [Pydiflumetofen, 3-(difluoromethyl)-N-methoxy-1-methyl-N-[1-(2,4,6-trichlorophenyl)propan-2-yl]pyrazole-4-carboxamide], the pest or weed control at 12.5 ppm [1, 3] was 0%, the pest or weed control at 50 ppm ([1]; Phakopsora pachyrhizi, rate 50 ppm, read-out: % DC obs) was 15.3% and the pest or weed control at 200 ppm [1, 11] was 85.4%.
For CC(C)(C)C(O)(CCc1ccc(Cl)cc1)Cn1cncn1 (stereo not shown) [Tebuconazole, 1-(4-chlorophenyl)-4,4-dimethyl-3-(1,2,4-triazol-1-ylmethyl)pentan-3-ol], the pest or weed control at 0.0015 ppm [1, 3] was 0%, the pest or weed control at 0.006 ppm [1, 3] was 11.1% and the pest or weed control at 0.0015 ppm ([2]; Phakopsora pachyrhizi, rate 0.0015 ppm, read-out: % DC obs) was 0%. For the same compound, the pest or weed control at 0.006 ppm ([2]; Phakopsora pachyrhizi, rate 0.006 ppm, read-out: % DC obs) was 0% and the pest or weed control at 0.024 ppm [2, 3] was 11.7%.
FC(F)C(F)(F)OCC(Cn1cncn1)c1ccc(Cl)cc1Cl (stereo not shown) [Tetraconazole, 1-[2-(2,4-dichlorophenyl)-3-(1,1,2,2-tetrafluoroethoxy)propyl]-1,2,4-triazole] showed a pest or weed control at 0.012 ppm [1, 12] of 0%, a pest or weed control at 0.049 ppm [1, 3] of 0% and a pest or weed control at 0.195 ppm [1, 5] of 90%. For the same compound, the pest or weed control at 0.012 ppm [2, 12] was 13.7% and the pest or weed control at 0.049 ppm [2, 3] was 13.7%.
CO/N=C(/C(=O)OC)c1ccccc1CO/N=C(\C)c1cccc(C(F)(F)F)c1 [Trifloxystrobin, methyl (2E)-2-methoxyimino-2-[2-[[(E)-1-[3-(trifluoromethyl)phenyl]ethylideneamino]oxymethyl]phenyl]acetate] was tested, and the pest or weed control at 0.195 ppm [2, 3] was 18.3%.
In the case of “zinc manganese(2+)N-[2-(sulfidocarbothioylamino)ethyl]carbamodithioate [Mancozeb]”, the “% DC obs” value ([1]; rate 0.19 ppm) is reported as 3.8%, the “% DC obs” value ([1]; rate 0.78 ppm) is reported as 0% and the “% DC obs” value ([1]; rate 3.125 ppm) is reported as 0%. For the same compound, the “% DC obs” value ([2]; rate 0.19 ppm) was 14.8%, the “% DC obs” value ([2]; rate 0.78 ppm) was 14.8% and the “% DC obs” value ([2]; rate 3.125 ppm) was 0%. For the same compound, the “% DC obs” value ([2]; rate not given) was 0%.
